Legend:
PDE2 = molecular target: T1, PDE2 (Bos taurus, UniProt P14099); assay: Inhibition of PDE2, radioenzymatic phosphodiesterase assay; type: biochemical, bovine
T1 construct: PDE2 was prepared from bovine endothelial cells by the same methods; endogenous in cells; host or cells: bovine endothelial cells
T1 sequence (P14099 1-921): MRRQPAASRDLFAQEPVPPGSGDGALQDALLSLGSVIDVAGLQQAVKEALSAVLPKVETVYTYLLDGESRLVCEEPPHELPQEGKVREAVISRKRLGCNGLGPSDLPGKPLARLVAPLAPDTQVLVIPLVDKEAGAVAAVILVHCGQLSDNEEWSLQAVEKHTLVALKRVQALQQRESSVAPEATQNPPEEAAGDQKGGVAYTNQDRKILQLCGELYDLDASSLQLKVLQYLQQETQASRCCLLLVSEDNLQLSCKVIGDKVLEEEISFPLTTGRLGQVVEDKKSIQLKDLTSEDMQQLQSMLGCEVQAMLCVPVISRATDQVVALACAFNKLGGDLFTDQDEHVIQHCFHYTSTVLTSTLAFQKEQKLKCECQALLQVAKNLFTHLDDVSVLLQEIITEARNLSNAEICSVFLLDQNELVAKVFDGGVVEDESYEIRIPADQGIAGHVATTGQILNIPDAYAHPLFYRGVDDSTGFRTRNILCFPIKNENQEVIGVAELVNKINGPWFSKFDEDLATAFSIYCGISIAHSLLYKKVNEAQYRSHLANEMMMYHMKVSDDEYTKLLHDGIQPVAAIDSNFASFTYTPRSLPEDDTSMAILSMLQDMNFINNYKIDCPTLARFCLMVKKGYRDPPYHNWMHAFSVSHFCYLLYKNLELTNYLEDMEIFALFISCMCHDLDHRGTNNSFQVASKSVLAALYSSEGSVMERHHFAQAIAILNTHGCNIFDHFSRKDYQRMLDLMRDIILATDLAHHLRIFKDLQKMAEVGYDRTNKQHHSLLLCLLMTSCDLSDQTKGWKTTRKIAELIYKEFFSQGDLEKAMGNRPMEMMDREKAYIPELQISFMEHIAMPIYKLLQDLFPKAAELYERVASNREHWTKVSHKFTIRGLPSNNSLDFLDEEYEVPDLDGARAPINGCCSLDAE

PDE4 = assay: Selectivity: inhibition of PDE4, radioenzymatic phosphodiesterase assay; type: biochemical, bovine; conditions: 10 μM test compound; vascular smooth muscle
Protocol: (§1) A 3 g segment of bovine aortic media cut into pieces with scissors was homogenized with an ultra-turrax then a potter glass/glass homogenizer in 7 volumes by weight of buffer A containing a protease inhibitor cocktail (20 mM Tris-HCl, 0.25 M saccharose, 2 mM magnesium acetate, 1 mM dithiothreitol, 5 mM EGTA, 2000 U/ml aprotinin, 10 mg/l leupeptin and 10 mg/l soya trypsic inhibitor). The homogenizate was centrifuged at 105,000 g for 1 hour. The supernatant was loaded on a DEAE-Sephacel column (15 x 1.6 cm) pre-equilibrated with buffer B (buffer A without the saccharose, EGTA and protease inhibitors). The column was washed until there was no detectable absorption at 280 nm, then eluted with a linear gradient of NaCl (0-0.5 M) in buffer B. 3-ml fractions were collected and enzyme activity was determined under the conditions described hereinbelow to localize the different enzymes PDE1, PDE3, PDE4 and PDE5 which were aliquoted and frozen at −80° C. (Lugnier et al., Biochem. Phamacol., 1986, 35: 1746-1751). PDE2 was prepared from bovine endothelial cells by the same methods (Lugnier and Schini, Biochem. Pharmacol., 1990, 39: 75-84).
(§2) Cyclic nucleotide phosphodiesterase activity was determined by a radioenzymatic method using tritium-labelled cyclic GMP or AMP (1 μM) as substrate (Lugnier et al., 1986). ^3H-labelled adenosine or guanosine monophosphate formed by hydrolysis of the radiolabelled cyclic nucleotide was then converted to ^3H-labelled adenosine or guanosine in a second reaction with […] in excess. The nucleoside formed was separated from the nucleotides by anion exchange chromatography. Nucleoside radioactivity was determined by liquid scintillation counting. Enzymatic incubations were carried out under conditions allowing no more than 15% hydrolysis of the substrate; each point was performed in duplicate.
(§3) The activity of the compounds was evaluated on other phosphodiesterase isoforms, particularly basal state or calmodulin-activated PDEl from vascular smooth muscle, PDE3, PDE4 and PDE5 from vascular smooth muscle.
(§4) The results obtained are presented in Tables 1 and 2 hereinbelow and are expressed as the percentage inhibition of enzymatic activity produced by […] of the test compound.

PDE5 = molecular target: T2, PDE5 (Bos taurus, UniProt Q28156); assay: Selectivity: inhibition of PDE5, radioenzymatic phosphodiesterase assay; type: biochemical, bovine; conditions: 10 μM test compound; vascular smooth muscle; read-out: PDE5 percentage inhibition at 10 μM
T2 construct: localize the different enzymes PDE1, PDE3, PDE4 and PDE5 which were aliquoted and frozen; from tissue; host or cells: bovine aortic media (vascular smooth muscle)
Protocol: as §1, §2, §3, §4

mice [1] = assay: Swim test; type: in vivo, Wistar rats or Swiss mice; conditions: 3 and 30 mg/kg, 20 minutes before the test, versus control group and 0.3 mg/kg group
Protocol: This test is based on the induction of alternative behavior in rodents subjected to an acute stress. In this model, the rat or mouse placed in a water-filled cylinder adopts a particular state of immobility. Onset of said immobility is delayed by antidepressants administered acutely or in repeated doses.
Wistar rats or Swiss mice were used. Animals were isolated for one week with a reverse light/dark cycle, then placed in the water-filled cylinder for 6 minutes. The total immobility time was recorded during the last 4 minutes. The treatment was administered 20 minutes before the test. Four groups were used to test three different doses: one control group treated with the vehicle, and one group for the three doses.
N=10; *** p<0.005 (Dunnett test).

mice [2] = assay: Light/dark test; type: in vivo, Balb/c or Swiss mice; conditions: mice, 0.3, 3 and 30 mg/kg orally 1 hour before the test, versus controls (p<0.01)
Description: This light/dark test is based on the natural tendency of rodents to prefer a dark environment and thereby evaluates the emotional responses of the animals in a situation of bright light. This procedure is suitable for assessing the state of anxiety elicited by anxiety stimuli (Lister's group, 1990). Mice placed in the apparatus, while showing a preference for the dark zone, nonetheless explore the light zone.
Ten to eleven-week old Balb/c or Swiss mice were used. Mice were randomly divided into a control group (treated with the vehicle) and other groups treated with the test compounds.
The test apparatus consisted of two PVC compartments (20×20×14 cm). with a plexiglass lid. One of the compartments was dark. A 100W light bulb was placed 15 cm above the other compartment, emitting the only light in the room (approximately 4400 lux). An opaque plastic tunnel separated the light and dark compartments.
The animal was placed in the light compartment with its head pointed towards the tunnel. The time spent in the light compartment and the number of entries into the light compartment were recorded for 5 minutes after the first entry into the dark zone. The test compound or the control treatment were administered orally 1 hour before the test.
N=10; ** p<0.01; **** p<0.001 (Dunnett test versus control).

COc1cc2c(cc1OC)N(C)C(=O)CN=C2c1cccc(C(N)=O)c1 [Compound 5a, 3-(7,8-dimethoxy-1-methyl-2-oxo-2,3-dihydro-1H-1,4-benzodiazepin-5-yl)-benzamide]
IC50 (PDE2): 1500 nM | PDE4 percentage inhibition at 10 μM (PDE4): 16.2% | inhibition at 10 µM (PDE5): 17.6% | total immobility time (mice [1]): shorter immobility time | time spent in the light compartment (mice [2]): significantly more time in the light compartment

Reference: US20060128695A1, “Cyclic nucleotide phosphodiesterase inhibitors, preparation and uses” (NEURO3D, priority 2002, published 2006)
